This is an account of results in publication PMC10700596 (Nature Communications, 2023).

The target in this assay is T1, EP4R (Homo sapiens, UniProt P35408).
T1 construct: Tango fusion cassette (only 'tango' is printed); expressed in transfected cells; host or cells: HTLA cells (tTA-dependent luciferase reporter, β-arrestin2-TEV fusion)
Put plainly: PRESTO-Tango β-arrestin2 recruitment assay. The conditions noted are these: for Ki: PRESTO-Tango Ki* (nM). Type of assay: cell-based. On the technique in general: Recruitment of arrestin is a read-out of receptor activation apart from second messengers.

Setting [1] is: PRESTO-Tango IC50 (nM), antagonist mode, EC80 of PGE2.
Where [2] appears, read: calculated using the Cheng Prusoff equation.
Where [3] appears, read: PRESTO-Tango -logIC50, antagonist mode, EC80 of PGE2.

The structures appear in SMILES notation.

A word on the IC50: it is the concentration that gives 50% inhibition. Lower therefore signals greater potency. For orientation: Ki means the equilibrium dissociation constant of an inhibitor or competing ligand from its target.

T1 sequence (P35408 whole entry, the tested form may be a part): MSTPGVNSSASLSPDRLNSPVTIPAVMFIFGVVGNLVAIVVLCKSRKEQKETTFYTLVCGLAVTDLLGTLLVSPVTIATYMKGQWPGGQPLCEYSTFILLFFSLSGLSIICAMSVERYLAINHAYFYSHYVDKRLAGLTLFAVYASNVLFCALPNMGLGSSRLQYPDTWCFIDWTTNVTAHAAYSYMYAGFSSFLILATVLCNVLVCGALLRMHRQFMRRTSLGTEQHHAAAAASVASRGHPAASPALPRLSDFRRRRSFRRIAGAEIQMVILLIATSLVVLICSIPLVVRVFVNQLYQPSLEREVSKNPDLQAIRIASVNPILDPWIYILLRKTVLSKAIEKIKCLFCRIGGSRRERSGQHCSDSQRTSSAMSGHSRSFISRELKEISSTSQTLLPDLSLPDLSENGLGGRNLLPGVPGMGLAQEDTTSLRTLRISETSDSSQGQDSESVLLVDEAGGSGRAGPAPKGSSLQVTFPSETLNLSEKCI

As for `O=C(O)C1CCC2(CC1)CC(Nc1nc(C(F)(F)F)nc3ccccc13)C2` (centres unmarked) [Compound 90, OC(=O)C1CCC2(CC(C2)NC=3N=C(N=C4C=CC=CC34)C(F)(F)F)CC1], the half-inhibitory concentration (IC50) under setting [1] amounted to 3870 nM. Also, the inhibition constant (Ki) under setting [2] is 774 nM.
Consider `O=C(NC1CCCC(C(=O)O)CC1)c1csc(C2CCCCC2)n1` (centres unmarked) [Compound 106, OC(=O)C1CCCC(CC1)NC(=O)C2=CSC(=N2)C3CCCCC3], for which the IC50 was 23400 nM under setting [3] and greater than 10000 nM under setting [1].
With `Cc1cc(C(=O)N[C@@H]2CC[C@@H](C(=O)O)CCC2(F)F)c(C)n1-c1ccccc1F` [Compound 113, CC1=CC(C(=O)N[C@@H]2CC[C@H](CCC2(F)F)C(=O)O)=C(C)N1C=3C=CC=CC3F], the IC50 by setting is: (PRESTO-Tango -logIC50) 11000 nM; (PRESTO-Tango IC50 (nM)) greater than 10000 nM.
For `O=C(NC1CCCC(C(=O)O)CC1)c1csc(Cc2ccccc2)c1` (centres unmarked) [Compound 107, OC(=O)C1CCCC(CC1)NC(=O)C2=CSC(CC=3C=CC=CC3)=C2], the half-maximal inhibitory concentration (IC50) runs as follows: under setting [3], 22900 nM; under setting [1], greater than 10000 nM.
In turn, `O=C(N[C@@H]1CC[C@@H](C(=O)O)CCC1(F)F)c1nn(-c2ccccc2)c2c1CCC2` [Compound 125, OC(=O)[C@@H]1CC[C@@H](NC(=O)C2=NN(C=3CCCC23)C=4C=CC=CC4)C(F)(F)CC1] came in with an IC50 under setting [1] of 1640 nM. In addition, the Ki under setting [2] was 328 nM.
Turning to `O=C(O)C[C@@H]1CC[C@H](NC(=O)c2csc(C3CCCCC3)c2)C1` [Compound 100, OC(=O)C[C@@H]1CC[C@@H](C1)NC(=O)C2=CSC(=C2)C3CCCCC3], the affinity, expressed as Ki, was 376 nM. Under setting [3], this compound gave an IC50 of 1820 nM. Under setting [1], the midpoint of inhibition, the IC50, lay at 1880 nM.
As for `Cc1cc(C(=O)NC2CCCC(C(=O)O)CC2)c(C)n1-c1cccc(F)c1` (centres unmarked) [Compound 126, CC1=CC(C(=O)NC2CCCC(CC2)C(=O)O)=C(C)N1C=3C=CC=C(F)C3], the “PRESTO-Tango -logIC50” value was “unstable”. Besides, for the setting “PRESTO-Tango IC50 (nM)”, the concentration for half-maximal inhibition (IC50) was greater than 10000 nM.
For the compound `Cc1cc(C(=O)NC2CCCC(C(=O)O)CC2)c(C)n1-c1ccc(C(C)C)cc1` (centres unmarked) [Compound 122, CC(C)C=1C=CC(=CC1)N2C(C)=CC(C(=O)NC3CCCC(CC3)C(=O)O)=C2C], 1150 nM corresponded to half-maximal inhibition under setting [1] (IC50). In addition, the inhibitory constant (Ki) under setting [2] was 229 nM.
For the compound `CC(C)c1ccc2ncnc(NC3CC4(CCC(C(=O)O)CC4)C3)c2c1` (centres unmarked) [Compound 87, CC(C)C=1C=CC=2N=CN=C(NC3CC4(C3)CCC(CC4)C(=O)O)C2C1], the IC50 runs as follows: under setting [3], 19500 nM; under setting [1], greater than 10000 nM.
For `O=C(NC1CCCC(C(=O)O)CC1)c1nn(-c2cccc(F)c2)c2c1CCC2` (centres unmarked) [Compound 123, OC(=O)C1CCCC(CC1)NC(=O)C2=NN(C=3CCCC23)C=4C=CC=C(F)C4], the half-inhibitory concentration (IC50) (PRESTO-Tango IC50 (nM)) stood at 1470 nM. Besides, the Ki under setting [2] was 293 nM.
Compound `O=C(N[C@@H]1CC[C@@H](C(=O)O)CCC1(F)F)c1nn(-c2ccccc2F)c2c1CCC2` [Compound 118, OC(=O)[C@@H]1CC[C@@H](NC(=O)C2=NN(C=3CCCC23)C=4C=CC=CC4F)C(F)(F)CC1] showed a Ki of 757 nM. For the same compound, the 50% inhibitory concentration (IC50) under setting [1] was determined as 3790 nM.
For the compound `O=C(N[C@@H]1CC[C@@H](C(=O)O)CCC1(F)F)c1nn(-c2ccc(F)cc2)c2c1CCC2` [Compound 127, OC(=O)[C@@H]1CC[C@@H](NC(=O)C2=NN(C=3CCCC23)C=4C=CC(F)=CC4)C(F)(F)CC1], the IC50 under setting [1] is 2170 nM. Besides, under setting [2], the inhibition constant (Ki) is 434 nM.
Consider `O=C(O)C1CCC2(CC1)CC(Nc1ncnc3sc(-c4ccccc4)cc13)C2` (centres unmarked) [Compound 85, OC(=O)C1CCC2(CC(C2)NC=3N=CN=C4SC(=CC34)C=5C=CC=CC5)CC1], for which the IC50 is, setting by setting: under setting [3], 776000 nM; under setting [1], greater than 10000 nM.
In turn, `CN(C(=O)c1nn(-c2ccccc2)c2c1CCC2)C1CCCC(C(=O)O)CC1` (centres unmarked) [Compound 131, CN(C1CCCC(CC1)C(=O)O)C(=O)C2=NN(C=3CCCC23)C=4C=CC=CC4] displayed an inhibition constant (Ki) of 376 nM. Under setting [1], this compound displayed a half-inhibitory concentration (IC50) of 1880 nM.
Consider `COc1cccc(-n2c(C)cc(C(=O)NC3CCCC(C(=O)O)CC3)c2C)c1` (centres unmarked) [Compound 117, COC=1C=CC=C(C1)N2C(C)=CC(C(=O)NC3CCCC(CC3)C(=O)O)=C2C], for which the IC50 is 22900 nM under setting [3] and greater than 10000 nM under setting [1].
`Cc1cc2c(NC3CC4(CCC(C(=O)O)CC4)C3)ncnc2s1` (centres unmarked) [Compound 88, CC1=CC=2C(NC3CC4(C3)CCC(CC4)C(=O)O)=NC=NC2S1]: the IC50 is, setting by setting: (PRESTO-Tango -logIC50) 708000 nM; (PRESTO-Tango IC50 (nM)) greater than 10000 nM.
With `O=C(O)C1CCC2(CC1)CC(Nc1ncnc3c1oc1ccccc13)C2` (centres unmarked) [Compound 84, OC(=O)C1CCC2(CC(C2)NC=3N=CN=C4C=5C=CC=CC5OC34)CC1], the affinity corresponds to a Ki of 1150 nM. This compound also yielded an IC50 under setting [1] of 5730 nM.
Turning to `Cc1csc2ncnc(NC3CC4(CCC(C(=O)O)CC4)C3)c12` (centres unmarked) [Compound 86, CC1=CSC=2N=CN=C(NC3CC4(C3)CCC(CC4)C(=O)O)C12], 7960 nM corresponded to half-maximal inhibition under setting [1] (IC50). For the same compound, under setting [2], the inhibition constant Ki was 1590 nM.
In the case of `Cc1cc(C(=O)NC2CCCC(C(=O)O)CC2)c(C)n1-c1ccccc1F` (centres unmarked) [Compound 129, CC1=CC(C(=O)NC2CCCC(CC2)C(=O)O)=C(C)N1C=3C=CC=CC3F], the IC50 runs as follows: under setting [3], 479000 nM; under setting [1], greater than 10000 nM.
Taken in the same sequence, the figures for `COc1ccc(-n2c(C)cc(C(=O)NC3CCCC(C(=O)O)CC3)c2C)cc1` (centres unmarked) [Compound 124, COC=1C=CC(=CC1)N2C(C)=CC(C(=O)NC3CCCC(CC3)C(=O)O)=C2C] were 53700 nM and greater than 10000 nM.
`O=C(O)C1CCC2(CC1)CC(Nc1ncnc3sc4c(c13)CCC4)C2` (centres unmarked) [Compound 91, OC(=O)C1CCC2(CC(C2)NC=3N=CN=C4SC=5CCCC5C34)CC1]: the Ki was 807 nM. The compound further registered a 50% inhibitory concentration (IC50) under setting [1] of 4030 nM.
In turn, `O=C(NC1CCCC(C(=O)O)CC1)c1nn(-c2ccc(F)cc2)c2c1CCC2` (centres unmarked) [Compound 116, OC(=O)C1CCCC(CC1)NC(=O)C2=NN(C=3CCCC23)C=4C=CC(F)=CC4] showed a half-maximal inhibitory concentration (IC50) under setting [3] of 17400 nM and an IC50 under setting [1] greater than 10000 nM.
Compound `Cc1nc2ncnn2c(NC2CC3(CCC(C(=O)O)CC3)C2)c1C` (centres unmarked) [Compound 94, CC1=NC2=NC=NN2C(NC3CC4(C3)CCC(CC4)C(=O)O)=C1C] had a half-maximal inhibitory concentration (IC50) (PRESTO-Tango -logIC50) of 12000 nM and an IC50 (PRESTO-Tango IC50 (nM)) greater than 10000 nM.
The compound `CC1CCc2c(sc3ncnc(NC4CC5(CCC(C(=O)O)CC5)C4)c23)C1` (centres unmarked) [Compound 92, CC1CCC2=C(C1)SC=3N=CN=C(NC4CC5(C4)CCC(CC5)C(=O)O)C23] returned a half-maximal inhibitory concentration (IC50) under setting [1] of 806 nM. Under setting [2], the Ki was 161 nM.
Taken in the same sequence, the figures for `O=C(NC1CCCC(C(=O)O)CC1)c1nn(-c2ccccc2)c2c1CCC2` (centres unmarked) [Compound 98, OC(=O)C1CCCC(CC1)NC(=O)C2=NN(C=3CCCC23)C=4C=CC=CC4] were 2060 nM and 411 nM.
In turn, `Cc1nc(NC2CC3(CCC(C(=O)O)CC3)C2)c2cc(-c3ccccc3)sc2n1` (centres unmarked) [Compound 93, CC=1N=C(NC2CC3(C2)CCC(CC3)C(=O)O)C=4C=C(SC4N1)C=5C=CC=CC5] displayed an IC50 under setting [1] of 7350 nM. Under setting [2], the Ki was 1470 nM.
`Cc1cc(C(=O)NC2CCCC(C(=O)O)CC2)c(C)n1-c1ccccc1` (centres unmarked) [Compound 78, CC1=CC(C(=O)NC2CCCC(CC2)C(=O)O)=C(C)N1C=3C=CC=CC3] yielded a Ki of 1420 nM. In addition, the IC50 under setting [1] stood at 7080 nM.
Take `CN(c1ncnc2[nH]c3ccccc3c12)C1CC2(CCC(C(=O)O)CC2)C1` (centres unmarked) [Compound 76, CN(C1CC2(C1)CCC(CC2)C(=O)O)C=3N=CN=C4NC=5C=CC=CC5C34]: the affinity, expressed as Ki, was 234 nM. For the setting “PRESTO-Tango IC50 (nM)”, this compound yielded an IC50 of 1170 nM.
Regarding `Cc1cc(C(=O)NC2CCCC(C(=O)O)CC2)c(C)n1-c1ccc(F)cc1` (centres unmarked) [Compound 119, CC1=CC(C(=O)NC2CCCC(CC2)C(=O)O)=C(C)N1C=3C=CC(F)=CC3], the IC50 is, setting by setting: under setting [3], 25900 nM; under setting [1], greater than 10000 nM.
